# In publication PMC5389348 (Scientific Reports, 2017):
# Like-named read-outs stand apart in the source and are kept apart here.
# Assays:
# PDE7A = target: T1, PDE7A (Homo sapiens, UniProt Q13946); assay: PDE enzymatic profile; type: biochemical
# T1 construct: purchased Scottish Biochem (Glasgow, Scotland, UK)
# PDE8B1 = target: T2, PDE8B1 (Homo sapiens, UniProt O95263); assay: PDE enzymatic profile; type: biochemical
# T2 construct: purchased Scottish Biochem (Glasgow, Scotland, UK)
# PDE7B = target: T3, PDE7B (Homo sapiens, UniProt Q9NP56); assay: PDE enzymatic profile; type: biochemical
# T3 construct: purchased Scottish Biochem (Glasgow, Scotland, UK)
# T3 sequence (Q9NP56 whole entry): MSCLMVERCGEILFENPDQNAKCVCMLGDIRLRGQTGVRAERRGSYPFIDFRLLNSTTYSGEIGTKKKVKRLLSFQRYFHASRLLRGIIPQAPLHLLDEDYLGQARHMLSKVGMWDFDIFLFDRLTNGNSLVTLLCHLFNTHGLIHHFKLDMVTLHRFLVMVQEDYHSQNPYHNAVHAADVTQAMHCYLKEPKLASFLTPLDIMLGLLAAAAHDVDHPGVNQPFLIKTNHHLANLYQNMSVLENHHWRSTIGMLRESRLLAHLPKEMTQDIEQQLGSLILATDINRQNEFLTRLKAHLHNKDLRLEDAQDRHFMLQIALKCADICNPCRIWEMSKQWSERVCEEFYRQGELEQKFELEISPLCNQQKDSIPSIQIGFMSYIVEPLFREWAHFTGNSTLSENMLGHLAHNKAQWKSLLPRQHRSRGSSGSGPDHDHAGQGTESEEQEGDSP
# PDE8A1 = target: T4, PDE8A1 (Homo sapiens, UniProt O60658); assay: PDE enzymatic profile; type: biochemical
# T4 construct: purchased Scottish Biochem (Glasgow, Scotland, UK)
# T4 sequence (O60658 whole entry): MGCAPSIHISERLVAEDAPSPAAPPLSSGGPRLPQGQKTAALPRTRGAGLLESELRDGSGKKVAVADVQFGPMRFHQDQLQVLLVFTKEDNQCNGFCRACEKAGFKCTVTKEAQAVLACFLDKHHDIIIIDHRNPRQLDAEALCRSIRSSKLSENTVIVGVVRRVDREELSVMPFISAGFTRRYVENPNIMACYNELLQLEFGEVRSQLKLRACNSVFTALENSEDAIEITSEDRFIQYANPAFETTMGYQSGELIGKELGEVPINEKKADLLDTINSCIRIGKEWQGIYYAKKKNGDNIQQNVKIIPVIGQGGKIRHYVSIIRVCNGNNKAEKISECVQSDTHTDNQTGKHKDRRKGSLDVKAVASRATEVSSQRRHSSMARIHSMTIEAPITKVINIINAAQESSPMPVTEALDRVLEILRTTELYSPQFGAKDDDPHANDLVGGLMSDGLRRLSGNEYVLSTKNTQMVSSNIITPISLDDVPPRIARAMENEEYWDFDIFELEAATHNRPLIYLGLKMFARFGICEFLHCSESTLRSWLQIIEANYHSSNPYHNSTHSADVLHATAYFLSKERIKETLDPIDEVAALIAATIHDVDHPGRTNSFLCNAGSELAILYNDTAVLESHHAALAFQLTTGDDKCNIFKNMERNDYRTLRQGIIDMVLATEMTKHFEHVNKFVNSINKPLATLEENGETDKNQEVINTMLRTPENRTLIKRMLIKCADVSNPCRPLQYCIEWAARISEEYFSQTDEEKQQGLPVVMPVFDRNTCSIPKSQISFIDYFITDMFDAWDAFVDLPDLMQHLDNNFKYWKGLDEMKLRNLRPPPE
# PDE4A1 = target: T5, PDE4A1 (Homo sapiens, UniProt P27815); assay: PDE enzymatic profile; type: biochemical; settings: read-out: GEBR-32a % inhibition, recombinant human PDE expressed in baculovirus
# T5 construct: purchased Scottish Biochem (Glasgow, Scotland, UK); host or cells: baculovirus system
# PDE11A1 = target: T6, PDE11A1 (Homo sapiens, UniProt Q9HCR9); assay: PDE enzymatic profile; type: biochemical; settings: read-out: GEBR-32a % inhibition, recombinant human PDE expressed in baculovirus, NI = no inhibition
# T6 construct: purchased Scottish Biochem (Glasgow, Scotland, UK)
# HTLA cells [1] = assay: Cytotoxicity, lactate dehydrogenase release; type: cell-based, human; settings: 100 μM, 24 hours
# Description: (§1) At the end of the incubation period, lactate-dehydrogenase release was measured in conditioned media using the Cytoxicity Detection Kit^PLUS (Roche, Germany) according to manufacturer protocols.
# HTLA cells [2] = assay: cAMP determination in cultured cells; type: cell-based, human; settings: 100 μM
# Description: The cells used in this study (human neuroblastoma cell line HTLA-230, HTLA) were grown in Roswell Park Memorial Institute medium (RPMI), with 0.1 mM non-essential aminoacids and 10% fetal bovine serum. At the end of treatments, intracellular cAMP was measured with the DetectX® Direct Cyclic AMP Enzyme Immunoassay Kit (Arbor Assay, MI, USA), following the manufacturer’s protocol.
# (§2) Results from cells and slices are presented as fold increase and represent mean ± S.E.M. of the number of experiments reported in the figure legend. Normal distribution was evaluated by Kolmogorov–Smirnov test and then data have been analysed by one-way ANOVA followed by Newman-Keuls or Dunnett’s tests, as appropriate.
# rat hippocampal slices = assay: cAMP determination in hippocampal slices; type: cell-based; settings: forskolin 0.1 μM
# Description: Hippocampal slices (400 μm thick) were obtained from adult Sprague Dawley rats using a McIlwain tissue chopper and pre-incubated in physiological medium[52] […] Finally, slices were left in hot medium (90 °C) for 15 min, sonicated and centrifuged at 10000 g for 15 min. The supernatant was used for cAMP determination, using the same kit as above, and the pellet for protein quantification.
# as §2
# aged WT and Tg2576 mice = assay: Hippocampal long-term potentiation, fEPSP recordings in slices of chronically treated mice; type: in vivo, mouse; settings: chronic 0.03 mg/kg for 23 days
# Description: Electrophysiological recordings have been carried out as previously described. […] A concentric bipolar platinum-iridium stimulation electrode and a low-resistance glass recording microelectrode filled with saline solution ([…]) were placed in CA1 stratum radiatum to record the extracellular field excitatory postsynaptic potential (fEPSP). Basal synaptic transmission was assayed by plotting the stimulus voltages against slopes of fEPSP.
# PDE4B3 = target: T7, PDE4B3 (Homo sapiens, UniProt Q07343); assay: PDE enzymatic profile; type: biochemical; settings: read-out: GEBR-32a % inhibition, recombinant human PDE expressed in baculovirus
# T7 construct: purchased Scottish Biochem (Glasgow, Scotland, UK); host or cells: baculovirus system
# HTLA cells [3] = assay: Genotoxicity, phosphorylation of histone H2A.X (Western blot); type: cell-based, human; settings: 100 μM, 24 hours
# Description: as §1
# To evaluate genotoxicity, cells were processed for total protein extraction as described previously. Immunoblots were done according to standard methods, using the following antibodies: mouse monoclonal to gamma H2A.X (2F3, phospho S139) and rabbit polyclonal to Histone H2A.X (Abcam, UK); anti-mouse and anti-rabbit secondary antibodies coupled to horseradish peroxidase (GE Healthcare, UK). Proteins were visualized with an enzyme-linked chemiluminescence detection kit according to the manufacturer’s instructions (GE Healthcare). Chemiluminescence was monitored by exposure to films and signals were analyzed under non-saturating condition with an image densitometer (Bio-Rad, CA, USA).
# PDE4A4 = target: T8, PDE4A4 (Homo sapiens, UniProt P27815); assay: PDE enzymatic profile; type: biochemical; settings: read-out: GEBR-32a % inhibition, recombinant human PDE expressed in baculovirus
# T8 construct: purchased Scottish Biochem (Glasgow, Scotland, UK); host or cells: baculovirus system
# PDE5A1 = target: T9, PDE5A1 (Homo sapiens, UniProt O76074); assay: PDE enzymatic profile; type: biochemical
# T9 construct: purchased Scottish Biochem (Glasgow, Scotland, UK)
# PDE10A1 = target: T10, PDE10A1 (Homo sapiens, UniProt Q9Y233); assay: PDE enzymatic profile; type: biochemical
# T10 construct: purchased Scottish Biochem (Glasgow, Scotland, UK)
# T10 sequence (Q9Y233 1-779 isoform Q9Y233-1): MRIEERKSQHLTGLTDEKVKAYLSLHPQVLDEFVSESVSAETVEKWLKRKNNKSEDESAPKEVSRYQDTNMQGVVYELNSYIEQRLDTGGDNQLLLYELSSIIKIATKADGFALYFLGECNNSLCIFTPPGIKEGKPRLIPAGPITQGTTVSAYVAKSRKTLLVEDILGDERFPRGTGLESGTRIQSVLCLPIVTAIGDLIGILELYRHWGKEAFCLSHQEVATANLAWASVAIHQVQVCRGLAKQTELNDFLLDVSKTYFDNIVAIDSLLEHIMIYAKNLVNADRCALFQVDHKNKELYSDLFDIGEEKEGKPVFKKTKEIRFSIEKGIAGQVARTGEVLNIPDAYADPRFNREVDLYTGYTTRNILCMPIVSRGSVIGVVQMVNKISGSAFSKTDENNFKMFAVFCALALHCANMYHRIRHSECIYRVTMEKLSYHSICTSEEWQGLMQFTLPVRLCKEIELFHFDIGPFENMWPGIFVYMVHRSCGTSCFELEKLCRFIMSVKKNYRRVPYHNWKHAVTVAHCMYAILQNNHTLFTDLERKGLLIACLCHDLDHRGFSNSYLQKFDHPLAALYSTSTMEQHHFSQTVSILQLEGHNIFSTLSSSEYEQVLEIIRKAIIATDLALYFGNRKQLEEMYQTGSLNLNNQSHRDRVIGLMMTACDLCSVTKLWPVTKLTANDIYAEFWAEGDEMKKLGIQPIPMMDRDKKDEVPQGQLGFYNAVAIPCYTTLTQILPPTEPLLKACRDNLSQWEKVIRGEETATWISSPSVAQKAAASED
# PDE9A1 = target: T11, PDE9A1 (Homo sapiens, UniProt O76083); assay: PDE enzymatic profile; type: biochemical; settings: read-out: GEBR-32a % inhibition, recombinant human PDE expressed in baculovirus, NI = no inhibition
# T11 construct: purchased Scottish Biochem (Glasgow, Scotland, UK)
# PDE4B2 = target: T12, PDE4B2 (Homo sapiens, UniProt Q07343); assay: PDE enzymatic profile; type: biochemical; settings: read-out: GEBR-32a % inhibition, recombinant human PDE expressed in baculovirus
# T12 construct: purchased Scottish Biochem (Glasgow, Scotland, UK); host or cells: baculovirus system
# PDE2A3 = target: T13, PDE2A3 (Homo sapiens, UniProt O00408); assay: PDE enzymatic profile; type: biochemical; settings: read-out: GEBR-32a % inhibition, recombinant human PDE expressed in baculovirus, NI = no inhibition
# T13 construct: purchased Scottish Biochem (Glasgow, Scotland, UK)
# T13 sequence (O00408 whole entry): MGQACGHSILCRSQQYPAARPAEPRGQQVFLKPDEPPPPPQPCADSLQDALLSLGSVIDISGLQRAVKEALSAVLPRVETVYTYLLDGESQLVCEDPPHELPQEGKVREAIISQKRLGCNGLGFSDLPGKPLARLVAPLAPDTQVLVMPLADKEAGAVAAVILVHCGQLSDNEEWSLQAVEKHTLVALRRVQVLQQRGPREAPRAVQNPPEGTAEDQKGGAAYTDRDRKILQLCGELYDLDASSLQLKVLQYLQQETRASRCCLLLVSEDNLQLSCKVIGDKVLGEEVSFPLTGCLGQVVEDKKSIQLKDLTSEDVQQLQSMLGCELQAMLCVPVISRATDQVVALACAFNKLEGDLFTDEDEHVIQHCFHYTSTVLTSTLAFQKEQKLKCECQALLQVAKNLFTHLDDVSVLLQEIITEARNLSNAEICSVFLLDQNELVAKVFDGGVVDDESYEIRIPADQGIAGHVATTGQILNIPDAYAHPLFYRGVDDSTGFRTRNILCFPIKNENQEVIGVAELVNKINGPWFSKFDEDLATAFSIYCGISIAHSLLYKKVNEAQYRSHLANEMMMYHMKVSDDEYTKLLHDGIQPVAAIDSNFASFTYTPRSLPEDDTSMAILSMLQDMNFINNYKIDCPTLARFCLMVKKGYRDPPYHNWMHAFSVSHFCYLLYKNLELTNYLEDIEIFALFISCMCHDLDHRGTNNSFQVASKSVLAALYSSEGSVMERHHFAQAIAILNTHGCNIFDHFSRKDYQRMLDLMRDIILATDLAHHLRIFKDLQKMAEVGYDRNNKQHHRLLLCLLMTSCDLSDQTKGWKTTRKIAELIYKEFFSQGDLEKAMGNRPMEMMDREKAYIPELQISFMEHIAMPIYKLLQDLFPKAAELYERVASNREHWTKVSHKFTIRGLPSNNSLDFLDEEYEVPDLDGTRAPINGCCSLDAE
# mice [4] = assay: Ketamine/xylazine induced α2-adrenoceptor-mediated anaesthesia test (emetic-like effect); type: in vivo, mouse; settings: 0.003–3 mg/kg s.c., adult mice
# Description: The outcome measurement was the total time the animals were anesthetized, measured from anaesthesia induction to the righting reflex (i.e. when mice were back on all four paws). In order to reduce the number of animals for experimentation and to get sufficient group sizes, the experiments were performed three times with 2 recovery days in between. […] Normal distribution of data was evaluated by Kolmogorov–Smirnov and one-way ANOVA was used to compare all conditions.
# PDE1B = target: T14, PDE1B (Homo sapiens, UniProt Q01064); assay: PDE enzymatic profile; type: biochemical
# T14 construct: purchased Scottish Biochem (Glasgow, Scotland, UK)
# T14 sequence (Q01064 whole entry): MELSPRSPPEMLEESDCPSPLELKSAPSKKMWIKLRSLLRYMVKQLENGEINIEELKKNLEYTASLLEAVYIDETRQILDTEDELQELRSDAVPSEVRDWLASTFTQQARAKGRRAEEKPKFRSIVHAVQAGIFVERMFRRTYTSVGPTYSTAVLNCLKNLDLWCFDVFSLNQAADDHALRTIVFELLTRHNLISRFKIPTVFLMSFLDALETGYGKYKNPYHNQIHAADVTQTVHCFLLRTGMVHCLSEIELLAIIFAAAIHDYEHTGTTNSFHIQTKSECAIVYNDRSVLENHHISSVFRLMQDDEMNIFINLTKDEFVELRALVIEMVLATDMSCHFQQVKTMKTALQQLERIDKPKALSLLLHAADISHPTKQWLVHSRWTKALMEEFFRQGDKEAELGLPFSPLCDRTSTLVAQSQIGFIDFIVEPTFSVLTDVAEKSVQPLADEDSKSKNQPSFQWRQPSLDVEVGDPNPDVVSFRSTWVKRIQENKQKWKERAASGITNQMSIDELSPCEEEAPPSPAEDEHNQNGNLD
# PDE4B1 = target: T15, PDE4B1 (Homo sapiens, UniProt Q07343); assay: PDE enzymatic profile; type: biochemical; settings: read-out: GEBR-32a % inhibition, recombinant human PDE expressed in baculovirus
# T15 construct: purchased Scottish Biochem (Glasgow, Scotland, UK); host or cells: baculovirus system
# WT and Tg2576 mice = assay: Y-maze continuous alternation task; type: in vivo, mouse
# Description: The apparatus was made of grey Plexiglas with three arms symmetrically placed together at a 120° angle. At the beginning of the trial, each mouse was placed in one of three arms (randomly divided and balanced) and was then allowed to freely explore the apparatus for 6 minutes. The number of entries into a different arm and the order was measured. An entry was only counted if all four paws of the animal were placed completely inside the arm. When a mouse visited all 3 arms consecutively, it made a triad. In between trials, the apparatus was cleaned with a 70% ethanol solution to avoid olfactory cues. […] Of note, there was no statistical difference between testing sessions (day effect; data not shown) and, therefore, both test sessions were pooled. To measure spatial working memory, the percentage of alternations was calculated by taking the number of triads and dividing it through the maximum possible alternations (total entries minus 2) and multiply this by 100. A score of 50% alternations is considered chance level and, therefore, a significant difference from 50% is indicative of functional working memory. Normal distribution of data was evaluated by Kolmogorov–Smirnov and one-way ANOVA was performed to evaluate differences between the conditions. For each condition, one-sample t-test was used for comparison versus the score of 50%.
# [5] = Pharmacokinetic analysis, plasma and brain; type: in vivo; settings: male, mouse
# Description: For blood analysis, 25 μL of plasma were transferred into a 1.5 mL Eppendorf tube and were added with 25 μL of methanol and 25 μL of internal standard (500 ng/mL voriconazole), followed by the addition of 100 μL methanol. As for brains, 100 mg of tissue were placed into a plastic tube and added with 500 μL of methanol to facilitate homogenization, which was carried out using a Fluko F6/10 superfine homogenizer for approximately 1 min. […] A 25 μL aliquot of the homogenized samples was transferred into an Eppendorf tube and added with 20 μL of internal standard (500 ng/mL voriconazole) followed by the addition of 100 μL of methanol. […] AUC0-t: the area under the plasma/brain concentration versus time curve from time 0 to the last measurable concentration was calculated by using the linear trapezoidal rule. Cmax: the maximum observed plasma concentration.
# mice [6] = system: mice; design: method as in PMID 21649644; settings: 0.03 and 0.3 mg/kg; same experimental conditions; cited from earlier work
# [7] = design: method as in PMID 27560284; settings: parent compound; cited from earlier work
# HTLA cells [8] = system: HTLA cells; design: method as in PMID 27560284; settings: 100 μM; same experimental conditions; cited from earlier work
# [9] = cited from earlier work
# [10] = Dipyridamole 50 μM, read-out: Comparator % inhibition
# [11] = read-out: GEBR-32a % inhibition, 10 μM, recombinant human PDE expressed in baculovirus
# [12] = read-out: GEBR-32a % inhibition
# [13] = sc, brain, 10 mg/kg s.c., BALB/c mice
# [14] = sc, plasma, 10 mg/kg s.c., BALB/c mice
# T2 sequence (O95263 whole entry): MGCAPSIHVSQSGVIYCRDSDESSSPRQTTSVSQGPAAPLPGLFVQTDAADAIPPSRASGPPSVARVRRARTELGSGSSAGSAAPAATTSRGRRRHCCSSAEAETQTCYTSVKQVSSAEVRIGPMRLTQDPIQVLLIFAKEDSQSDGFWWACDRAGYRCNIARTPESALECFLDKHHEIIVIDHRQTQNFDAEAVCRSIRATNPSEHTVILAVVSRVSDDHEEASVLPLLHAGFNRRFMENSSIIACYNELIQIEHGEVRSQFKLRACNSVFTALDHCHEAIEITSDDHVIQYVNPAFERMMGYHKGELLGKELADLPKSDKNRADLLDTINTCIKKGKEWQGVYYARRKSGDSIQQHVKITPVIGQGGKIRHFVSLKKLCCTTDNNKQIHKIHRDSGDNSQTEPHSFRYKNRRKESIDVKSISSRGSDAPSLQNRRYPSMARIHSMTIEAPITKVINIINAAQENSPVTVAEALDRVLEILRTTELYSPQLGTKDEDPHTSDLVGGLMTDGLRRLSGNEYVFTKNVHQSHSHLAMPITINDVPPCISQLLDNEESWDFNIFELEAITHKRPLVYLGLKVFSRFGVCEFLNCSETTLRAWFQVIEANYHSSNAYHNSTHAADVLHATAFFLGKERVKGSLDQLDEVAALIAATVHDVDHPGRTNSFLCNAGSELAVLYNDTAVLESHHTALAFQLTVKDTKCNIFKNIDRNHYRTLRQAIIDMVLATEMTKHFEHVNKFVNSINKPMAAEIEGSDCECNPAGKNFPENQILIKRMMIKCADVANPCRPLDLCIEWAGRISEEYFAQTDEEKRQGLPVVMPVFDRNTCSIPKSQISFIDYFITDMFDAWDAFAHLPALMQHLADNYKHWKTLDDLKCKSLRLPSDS
# T1 sequence (Q13946 whole entry): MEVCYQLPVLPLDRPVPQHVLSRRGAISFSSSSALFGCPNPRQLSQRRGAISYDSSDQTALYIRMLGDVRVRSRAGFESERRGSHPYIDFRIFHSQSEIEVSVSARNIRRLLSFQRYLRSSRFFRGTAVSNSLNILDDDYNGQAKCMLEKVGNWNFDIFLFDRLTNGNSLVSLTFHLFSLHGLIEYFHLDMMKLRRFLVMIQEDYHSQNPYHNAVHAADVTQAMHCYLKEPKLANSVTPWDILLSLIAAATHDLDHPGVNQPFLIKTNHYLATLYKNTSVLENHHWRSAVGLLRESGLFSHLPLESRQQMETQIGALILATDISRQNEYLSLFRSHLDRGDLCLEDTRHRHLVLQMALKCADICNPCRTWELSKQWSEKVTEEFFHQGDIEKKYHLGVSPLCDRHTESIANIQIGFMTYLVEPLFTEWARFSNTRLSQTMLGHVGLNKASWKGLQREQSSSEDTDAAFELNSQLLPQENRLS
structure (smiles),measurement,setting,value
"Cc1ccc([N+](=O)[O-])cc1S(=O)(=O)N(C)C [BRL-50481, reference compound]",Comparator % inhibition,PDE7A; BRL-50481 10 μM,78.6 (BRL-50481 10 μM) %
"OCCN(CCO)c1nc(N2CCCCC2)c2nc(N(CCO)CCO)nc(N3CCCCC3)c2n1 [Dipyridamole, reference compound]",inhibition at 50 µM,PDE8B1; [10],57.4%
same,inhibition at 50 µM,PDE7B; [10],47.3%
same,inhibition at 50 µM,PDE8A1; [10],64.4%
OC(CN1CCOCC1)Cn1ccc(-c2ccc(OC(F)F)c(OC3CCCC3)c2)n1 (centres unmarked) [GEBR-32a],inhibition at 10 µM,PDE4A1,41%
same,inhibition at 10 µM,PDE11A1,< 0%
same,inhibition at 10 µM,PDE8B1; [11],23.5%
same,"cytotoxicity, lactate dehydrogenase release",HTLA cells [1],did not produce any significant effect
same,increase of the forskolin-induced elevation of cAMP in cultured cells,HTLA cells [2]; forskolin 1 μM,12 fold
same,increase of cAMP with respect to controls,HTLA cells [2]; without forskolin,2.5 fold
same,EC50,"rat hippocampal slices; Rattus norvegicus, 0.1–100 μM, read-out: apparent EC50, increase of forskolin-induced cAMP production",1800 nM
same,elevation of forskolin-induced cAMP production,rat hippocampal slices; highest concentration tested (100 μM),4 fold
same,hippocampal LTP (fEPSP),aged WT and Tg2576 mice; aged Tg2576 mice,rescue the LTP deficit
same,hippocampal LTP (fEPSP),aged WT and Tg2576 mice; aged WT mice,"clear, though not significant, enhancement of LTP"
same,inhibition at 10 µM,PDE7B; [11],8.61%
same,inhibition at 10 µM,PDE4B3,39.4%
same,"genotoxicity, phosphorylation of histone H2A.X",HTLA cells [3],did not produce any significant effect
same,inhibition at 10 µM,PDE4A4,11%
same,inhibition at 10 µM,PDE5A1; [11],4.97%
same,inhibition at 10 µM,PDE10A1; [12],< 0%
same,inhibition at 10 µM,PDE9A1,< 0%
same,inhibition at 10 µM,PDE4B2,26.3%
same,inhibition at 10 µM,PDE2A3,< 0%
same,duration of anaesthesia (emetic-like effect),mice [4],did not significantly influence the duration of anaesthesia
same,inhibition at 10 µM,PDE8A1; [12],< 0%
same,inhibition at 10 µM,PDE1B; [12],10.7%
same,inhibition at 10 µM,PDE4B1,41.6%
same,"percentage of alternations, Y-maze","WT and Tg2576 mice; adult WT mice, administered 30 min before trial, data not shown",not further improved
same,"percentage of alternations, Y-maze","WT and Tg2576 mice; aged Tg2576 mice, acute 0.0003–0.3 mg/kg s.c. 30 min before trial",not able to induce any improvement
same,"percentage of alternations, Y-maze","WT and Tg2576 mice; aged Tg2576 mice, chronic 0.03 mg/kg for up to 23 days",alternations significantly higher than 50%
same,"percentage of alternations, Y-maze","WT and Tg2576 mice; aged WT mice, acute, all doses tested 0.0003–0.3 mg/kg s.c. 30 min before trial",significantly ameliorated the performance
same,inhibition at 10 µM,"PDE7A; read-out: GEBR-32a % inhibition, 10 μM, recombinant human PDE expressed in baculovirus, NI = no inhibition",< 0%
same,Tmax,"[5]; BALB/c, plasma and brain, subcutaneous, 10 mg/kg, absorption and distribution to the brain",20 min
same,half-life,"[5]; BALB/c, plasma and brain, subcutaneous, 10 mg/kg, elimination, read-out: half-life (converted)",~60 min
same,Kp,"[5]; in vivo, sc, 10 mg/kg s.c., BALB/c mice, read-out: AUC0-t Ratio (Brain/Plasma)",2.71
same,AUC(0-t),[5]; [13],2330 ng·h/mL
same,Cmax,[5]; [13],2610 ng/g
same,Tmax,[5]; [13],19.8 min
same,half-life,"[5]; sc, brain, 10 mg/kg s.c., BALB/c mice, read-out: t1/2 (converted)",57 min
same,AUC(0-t),[5]; [14],861 ng·h/mL
same,Cmax,[5]; [14],993 ng/mL
same,Tmax,[5]; [14],19.8 min
same,half-life,"[5]; sc, plasma, 10 mg/kg s.c., BALB/c mice, read-out: t1/2 (converted)",57 min
"COc1ccc(Cc2nccc3cc(OC)c(OC)cc23)cc1OC [Papaverine, reference compound]",inhibition at 1 µM,"PDE10A1; Papaverine 1 μM, read-out: Comparator % inhibition",90.7%
COc1ccc(C2CNC(=O)C2)cc1OC1CCCC1 (centres unmarked) [Rolipram],duration of anaesthesia (emetic-like effect),mice [6],significantly shortened anaesthesia time
"CCCc1nn(C)c2c(=O)[nH]c(-c3cc(S(=O)(=O)N4CCN(C)CC4)ccc3OCC)nc12 [Sildenafil, reference compound]",inhibition at 0.1 µM,PDE5A1; read-out: Comparator % inhibition,74.9%
same,inhibition at 10 µM,"PDE1B; Sildenafil 10 μM, read-out: Comparator % inhibition",74.4%
COc1ccc(-c2ccn(CC(O)CN3CCOCC3)n2)cc1OC1CCCC1 (centres unmarked) [compound 8a],brain/plasma ratio,[7],0.76
same,increase of the forskolin-induced elevation of cAMP in cultured cells,HTLA cells [8],4 fold
O=C(Nc1c(Cl)cncc1Cl)c1ccc(OC(F)F)c(OCC2CC2)c1 [roflumilast],brain/plasma ratio,[9],1
